Holding throughout (assay type): cell-based
Test [1] relates to latent HIV in resting CD4+ T cells from HIV-infected individuals under ART. In words: Quantitative Viral Outgrowth Assay (QVOA), p24 ELISA. Conditions: resting CD4+ T cells from 5 HIV-infected individuals under ART; ex vivo. As to the method: It was tested whether the histone crotonylation inducer, sodium crotonate, can reactivate latent HIV reservoirs from a patient under ART. Peripheral blood samples were obtained from 5 HIV-infected individuals with undetectable plasma viral loads and higher CD4+ T cell numbers (see Table 1). One million resting CD4+ T cells were treated with IL-2, PHA+IL-2, or IL-2+Na-Cro, and HIV p24 production was measured by QVOA using p24 ELISA as a measure of HIV reactivation.
Quantitative Viral Outgrowth Assay: Peripheral blood mononuclear cells (PBMC) were obtained from HIV-infected individuals on suppressive ART (n=5) by continuous-flow leukopheresis. Isolation of resting CD4+ T cells and quantification of replication competent virus was performed as previously described (see S. Dandekar, et al. Current HIV/AIDS reports 4, 10-15 (2007)). […] Cultures were scored as positive if p24 was detected at day 15 and was increased in concentration at day 19. […]
On the technique in general: ELISA stands for enzyme-linked immunosorbent assay.

Another test has as its system latent HIV in U1 cells. Put plainly: p24 ELISA in U1 cells. Conditions: day 6. On the procedure: Cell culture: J-Lat Al cells (derived from Jurkat cells harboring HIV LTR-Tat-GFP gene) and U1 cells (promonocytic cell line harboring one copy of HIV genome with defective tat gene) were obtained from NIH AIDS Reagent Program and cultured at 37° C. with 5% CO2 in RPM11640 medium containing 10% FBS and 1% penicillin-streptomycin as previously described (see G. Jiang, et al. PLoS Pathogens 11, e1005066 (2015)).
For inhibiting ACSS2 and crotonylation, cells were pretreated with ACSS2 inhibitor, AR12 (SELLECK CHEMICALS™, Houston, Tex.), for 30 minutes, followed by Na-Cro treatment for 4 or 18 hours.

The test system of test [2] is HIV LTR in J-Lat A1 cells. Put plainly: Chromatin immunoprecipitation (ChIP) at the HIV LTR. Conditions: J-Lat A1 cells, 30 mM Na-Cro for 4 hours. The text has this: FIG. 2 is a series of images and graphs showing that histone crotonylation by sodium crotonate addition re-programs histone tails at the HIV LTR. Panel A illustrates that Na-Cro addition increased global expression of H3K4Cro, H3K4Ac, and H3K18Ac while decreasing H3K27Me3. Panel B illustrates expression of transcription factors after Na-Cro addition in J-Lat Al cells. Panels C-E illustrate that Na-Cro addition re-programmed histone tails at the HIV LTR. Chromatin immunoprecipitation (ChIP) assay was performed by using anti-H3K4Cr, anti-H3K4Ac, and anti-H3K27Me3 antibodies after J-Lat Al cells were treated with 30 mM Na-Cro for 4 hours. PCR primers were specific for the HIV LTR region.
FIG. 7 is a series of graphs showing that induction of de-crotonylation of histone tail at HIV LTR is independent of SIRTs. Panel A illustrates that J-Lat Al cells were pre-treated with either 50 μM RSV or 1 mM NAM, followed by 30 mM Na-Cro addition to reactivate latent HIV expression. Untreated controls were compared with positive controls involving individual treatment of Na-Cro, RSV, or NAM. *, p<0.05; **, p<0.01 compared with control treatment. #, p<0.05 compared with Na-Cro treatment. Panel B illustrates that gene expression of sirt1 or sirt3 was measured by RT-qPCR in J-Lat Al cells treated with either 25 μM RSV, 50 μM RSV, or 1 mM NAM. *, p<0.05 and **, p<0.01 compared with control treatment. Panels C and D illustrate that histone crotonylation induces binding of SIRT3 and SIRT1 at the HIV LTR. J-Lat Al cells were treated with 30 mM Na-Cro for 4 hours and analyzed by ChIP assays using anti-SIRT1 or anti-SIRT3 antibodies. *, p<0.05 compared with control treatment.
Chromatin Immunoprecipitation (ChIP): J-Lat Al cells (2.5 to 5 million) were utilized in ChIP assays with anti-H3K18Ac, anti-H3K4Cr, anti-H3K27Me3, anti-H3K4Ac, anti-SIRT3 (CELL SIGNALING TECHNOLOGY®), and anti-SIRT1 (CELL SIGNALING TECHNOLOGY®) antibodies. ChIP assays were performed using […]® Kit from CELL SIGNALING TECHNOLOGY® as per the manufacturer's recommendations. Samples were cross-linked using formaldehyde and 150-1000 bp fragments were made using Micrococcal Nuclease digestion and 7 cycles of 30 seconds on/30 seconds off sonication. Antibodies were used to probe respective proteins. Purification of DNA was performed using the […]® Kit Protocol. Purified ChIP DNA was used in SYBR® Green qPCR using ChIP primers specific for HIV LTR.

For `C/C=C/C(=O)[O-].[Na+]` [Na-Cro, sodium crotonate], in test [1], the “replication-competent HIV recovered (HIV reactivation, QVOA)” value was “four of the five participants”. In addition, the p24 antigen entry in the test with latent HIV in U1 cells (20 mM Na-Cro) is “over 500 pg/mL”. Also, the p24 antigen in the test on latent HIV in U1 cells (40 mM Na-Cro) is reported as greater than 2000 pg/mL. Also, in test [2], the “acetylation at H3K4 at the HIV LTR” value is on record as “increased”, the “binding of SIRT1 at the HIV LTR” value is given as “efficiently bound to the HIV LTR at higher levels than controls”, the “binding of SIRT3 at the HIV LTR” value is given as “efficiently bound to the HIV LTR at higher levels than controls” and the “crotonylation at H3K4 at the HIV LTR” value is given as “increased”. The “histone tri-methylation at H3K27 at the HIV LTR” value in test [2] is “decreased”.

The values above are taken from patent publication US20230087766A1, “METHODS OF REACTIVATING LATENT HUMAN IMMUNODEFICIENCY VIRUS AND RELATED COMPOSITIONS” (priority 2017, published 2023).
